Reference: patent US20240277246A1, “MANGANESE-ENHANCED MAGNETIC RESONANCE IMAGING” (IC Targets AS, priority 2021, published 2024)
Like-named read-outs stand apart in the source and are kept apart here.

Key:
[1] = test system: cardiomyocytes (left ventricle myocardium; uptake via L-type calcium channels); test: Manganese-enhanced T1 mapping MRI, kinetic analysis of cardiomyocyte cellular manganese uptake after MnDPDP infusion; assay type: in vivo, human
Procedure: A midventricular short axis view was used and a region of interest in the left ventricle myocardium and a region of interest in the blood in the ventricular cavity was used for measurements. […] The total infusion time was 7.5 minutes. T1 mapping MRI was performed every 2.5 minutes for a total of 40 minutes to collect data for kinetic analysis.
After the examination, the myocardial T1 values were converted to changes in relaxation rates from the baseline values according to equation 12. The heamocrit for the subject was measured to 0.44 and the plasma T1 values were converted to changes in relaxation rates according to equation 13.
This is what would be expected from the loss of cells without a loss of individual cell function. Thus, by applying the prior art method, it would therefore wrongly be concluded that the cellular manganese flux rate was reduced.
The rate constant for cardiomyocyte intracellular relaxivity increase Kcell^ΔR1, and thus the cardiomyocyte cellular manganese uptake rate Kcell^Mn, was calculated according to the invention, applying equation 20 where the constant KECF was set equal to 1. The Kcell^Mn value was 0.0650 min^−1. The data used to calculate the rate constant is shown graphically in FIG. 8 (“ict”), corresponding to a straight line with slope=Kcell^Mn=0.0650 min^−1 and intercept=ECV=0.35. […]
If the ECF was in equilibrium with plasma, the slope would be the ECV=0.322. However, due to the uptake of manganese into the cardiomyocytes, the ECF is in dynamic equilibrium with plasma with a manganese concentration ratio of
Assuming that the rate constant for diffusion between plasma and the ECF is the same in both directions, K1=K2 and K3/K1=1/KECF−1=1/0.72−1=0.40.
When the ratio between the manganese concentration in the ECF and plasma can be estimated, the apparent cellular rate constant Kcell^Mn*KECF can be converted to the actual cellular uptake rate constant Kcell^Mn by division with KECF.

[2] = corresponds to end of infusion
Procedure: A midventricular short axis view was used and a region of interest in the left ventricle myocardium and a region of interest in the blood in the ventricular cavity were used for measurements. […] The total infusion time was 7.5 minutes. T1 mapping MRI was performed every 2.5 minutes for a total of 40 minutes to collect data for kinetic analysis.
After the examination, the myocardial T1 values were converted to changes in relaxation rates from the baseline values according to equation 12. The heamocrit for the subject was measured to 0.41 and the plasma T1 values were converted to changes in relaxation rates according to equation 13.
A midventricular short axis view was used in each patient and a region of interest in the left ventricle myocardium and a region of interest in the blood in the ventricular cavity was used for measurements. […] The total infusion time was 7.5 minutes. T1 mapping MRI was performed every 2.5 minutes for a total of 40 minutes to collect data for kinetic analysis.
After the examinations, the myocardial T1 values were converted to changes in relaxation rates from the baseline values according to equation 12. The average heamocrit for the 5 subjects was measured to 0.416 and the plasma T1 values were converted to changes in relaxation rates according to equation 13.

SMILES: Cc1ncc(COP(=O)(O)O)c(CN(CCN(CC(=O)[O-])Cc2c(COP(=O)(O)O)cnc(C)c2O)CC(=O)[O-])c1O.[Mn+2] [MnDPDP, manganese (II) N,N′-dipyridoxyl-ethylenediamine-N,N′-diacetate-5,5′-bis(phosphate)]
- cardiomyocyte cellular manganese uptake rate Kcell^Mn (corrected by division with KECF) ([1]; average of 5 patients with hypertrophic cardiomyopathia, KECF 0.72): 0.096
- apparent cellular rate constant Kcell^Mn*KECF ([1]; average of 5 patients with hypertrophic cardiomyopathia, linear regression without restrictions to the intercept): 0.0691
- slope of the Patlak line (prior art method) ([1]; healthy volunteer, 5 μmol/kg infusion over 7.5 min): 0.0484 min⁻¹
- cardiomyocyte cellular manganese uptake rate Kcell^Mn ([1]; healthy volunteer, 5 μmol/kg infusion over 7.5 min, equation 20, KECF set to 1, forced intercept ECV 0.25): 0.0591 min⁻¹
- uptake rate constant by the Patlak method of prior art ([1]; patient with dilated cardiomyopathia, 5 μmol/kg infusion over 7.5 min): 0.0429
- cardiomyocyte cellular manganese uptake rate Kcell^Mn ([1]; patient with dilated cardiomyopathia, 5 μmol/kg infusion over 7.5 min, equation 20, KECF set to 1, forced intercept ECV 0.35): 0.0650 min⁻¹
- time at which plasma ΔR1 is highest ([2]; average of 5 patients with hypertrophic cardiomyopathia): 7.5 min
- time at which plasma ΔR1 is highest ([2]; healthy volunteer): 7.5 min
- time at which plasma ΔR1 is highest ([2]; patient with dilated cardiomyopathia): 7.5 min
